The text below walks through data of US5227375A, “Aromatase inhibitors” (Endorecherche, Inc., priority 1990, dated 1993).

The Ki is the dissociation constant of the complex between target and ligand, obtained from inhibition or displacement. Read a high Ki as weaker binding.

The test deals with T1, placental aromatase (Homo sapiens, UniProt P11511).
T1 construct: Microsomal aromatase was obtained from human placenta; from tissue; host or cells: human placenta microsomes
T1 sequence (P11511 1-503): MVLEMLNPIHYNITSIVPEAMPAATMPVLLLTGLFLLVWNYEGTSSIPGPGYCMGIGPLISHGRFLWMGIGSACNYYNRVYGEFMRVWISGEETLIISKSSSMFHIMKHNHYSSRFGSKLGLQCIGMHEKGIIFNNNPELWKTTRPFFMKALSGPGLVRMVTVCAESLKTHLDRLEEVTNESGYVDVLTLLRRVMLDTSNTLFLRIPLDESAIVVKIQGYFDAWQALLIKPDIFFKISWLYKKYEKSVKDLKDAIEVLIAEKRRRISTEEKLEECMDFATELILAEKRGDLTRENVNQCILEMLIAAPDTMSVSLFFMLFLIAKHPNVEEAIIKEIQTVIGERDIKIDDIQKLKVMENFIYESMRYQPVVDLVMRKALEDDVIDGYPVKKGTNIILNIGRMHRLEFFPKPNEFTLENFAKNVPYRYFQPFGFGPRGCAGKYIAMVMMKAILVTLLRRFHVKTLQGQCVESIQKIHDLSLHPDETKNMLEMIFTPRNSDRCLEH
Nature of the test: Inhibition of placental aromatase activity (tritiated water release from [3H]androstenedione; modified Thompson and Siiteri assay). Format: biochemical. The settings on record: for aromatase inhibitory activity (in words): qualitative statement. As for the experimental part:
Microsomal aromatase was obtained from human placenta. A reaction vessel was prepared containing microsomes (0.124 mg protein/ml), NADPH (0.625 mM), [^3 H]androstenedione (0.33 μM) and increasing concentrations of the potential inhibitor being tested in buffer (800 μl) (0.1M KH2 PO4, pH 7.5). The conversion of androstenedione to estrone was allowed to proceed at 37° C. for 30 min and stopped by addition of 200 μl of charcoal suspension (25 mg/ml) in the same buffer. After centrifugation, tritiated water contained in 100 μl of supernatant was counted. The amount of tritiated water is proportional to the amount of transformed [^3 H] androstenedione.

With `C=CC[C@@H]1CC2=CC(=O)CC[C@]2(C)[C@H]2CC[C@]3(C)C(=O)CC[C@H]3[C@H]12` [EM 173, 7α-allyl-4-androsten-3,17-dione], affinity was put at a Ki of 200 nM and the “aromatase inhibitory activity (in words)” value is reported as “showed aromatase inhibitory activity”.
The like results for `C=CC[C@@H]1C[C@H]2CC(=O)CC[C@]2(C)[C@H]2CC[C@]3(C)C(=O)CC[C@H]3[C@H]12` [EM 198, 7α-allyl-5α-androstan-3,17-dione] were, in that order, 600 nM and “showed aromatase inhibitory activity”.
Taken in the same sequence, the figures for `C=CC[C@@H]1C[C@@H]2CC(=O)CC[C@]2(C)[C@H]2CC[C@]3(C)C(=O)CC[C@H]3[C@H]12` [EM 176, 7α-allyl-5β-androstan-3,17-dione] were 900 nM and “showed aromatase inhibitory activity”.
